Laboratory results published in US4416884A, “Piperazinylbenzoheterocyclic compounds” (Otsuka Pharmaceutical Co., Ltd., priority 1978, dated 1983).
Converted amounts (≈) assume the structure as drawn. Where two headings read alike, the source gives them in different places.

How the values were obtained:
Assay in all cases: antimicrobial activity, serial dilution method on agar plate
Type in all cases: cell-based
Escherichia Coli NIHJ = conditions: inoculum 1 × 10^8 cells/ml, read-out: Minimum Inhibitory Concentration
Protocol: (§1) The antimicrobial activity of the following test compounds on various test organisms listed below was determined by the serial dilution method on agar plate (Heart Infusion agar produced by Difco Co.) (see CHEMOTHERAPY 22, pp. 1126-1128 (1974)), and the minimum inhibitory concentrations (mcg/ml) obtained are shown in Table 1 below.
(§2) A sample of each test organism was prepared so that the population of the organism was 1×10^8 cells/ml (O.D. 660 mμ=0.07 to 0.16) and 1×10^6 cells/ml (which was obtained by diluting the above 1×10^8 cells/ml preparation).

Klebsiella pneumoniae = test system: Klebsiella pneumoniae
Protocol: as §1, §2

Proteus rettgeri NIH 96 = conditions: Providencia rettgeri
Protocol: as §1, §2

[1] = test system: Pseudomonas aeruginosa ATCC 10145
Protocol: as §1, §2

[2] = test system: Pseudomonas aeruginosa E-2
Protocol: as §1, §2

[3] = test system: Pseudomonas aeruginosa NCTC 10490
Protocol: as §1, §2

[4] = test system: Salmonella typhi 0-901 (NCTC 8393); conditions: Salmonella enterica
Protocol: as §1, §2

[5] = test system: Serattia marcescens IFO 12648
Protocol: as §1, §2

Shigella Sonnei EW 33 = conditions: inoculum 1 × 10^8 cells/ml, read-out: Minimum Inhibitory Concentration
Protocol: as §1, §2

[6] = test system: Staphylococcus aureus FDA 209 P
Protocol: as §1, §2

[7] = test system: Escherichia Coli NIHJ JC-2 (IFO 12734); conditions: Escherichia coli, read-out: Minimum Inhibitory Concentration
Protocol: as §1, §2

[8] = test system: Streptococcus pyogenes IID S-23
Protocol: as §1, §2

[9] = inoculum 1 × 10^8 cells/ml, read-out: Minimum Inhibitory Concentration
[10] = NIH96, inoculum 1 × 10^8 cells/ml, read-out: Minimum Inhibitory Concentration
[11] = ATCC10145, inoculum 1 × 10^8 cells/ml, read-out: Minimum Inhibitory Concentration
[12] = E2, inoculum 1 × 10^8 cells/ml, read-out: Minimum Inhibitory Concentration
[13] = NCTC10490, inoculum 1 × 10^8 cells/ml, read-out: Minimum Inhibitory Concentration
[14] = read-out: Minimum Inhibitory Concentration, inoculum 1 × 10^8 cells/ml
[15] = FDA209, inoculum 1 × 10^8 cells/ml, read-out: Minimum Inhibitory Concentration
[16] = ATCC10145, read-out: Minimum Inhibitory Concentration, inoculum 1 × 10^8 cells/ml
[17] = NCTC10490, read-out: Minimum Inhibitory Concentration, inoculum 1 × 10^8 cells/ml
[18] = IIDS23, inoculum 1 × 10^8 cells/ml, read-out: Minimum Inhibitory Concentration
[19] = IIDS23, read-out: Minimum Inhibitory Concentration, inoculum 1 × 10^8 cells/ml

SMILES	MIC (Escherichia Coli NIHJ)	MIC (Klebsiella pneumoniae; [9])	MIC (Proteus rettgeri NIH 96; [10])	MIC [1, 11]	MIC [2, 12]	MIC [3, 13]	MIC [4, 14]	MIC [5, 9]	MIC (Shigella Sonnei EW 33)	MIC [6, 15]	MIC ([7]; inoculum 1 × 10^8 cells/ml)	MIC [8, 18]	further results
CC1(C)SC2C(NC(=O)C(NC(=O)c3cn4c5c(c(N6CCN(S(C)(=O)=O)CC6)ccc5c3=O)CCC4)c3ccccc3)C(=O)N2C1C(=O)O (centres unmarked) [Compound J, 6-{2-[8-(4-Methanesulfonyl-1-piperazinyl)-6,7-dihydro-1-oxo-1H,5H--benzo[ij]quinolizine-2-carboxamido]-2-phenylacetamido}-3,3-dimethyl-7-oxo-4-thia-1-azabicyclo[3,2,0]-heptane-2-carboxylic acid, reference compound]	3.1 µg/mL (≈ 4.29 µM)	6.3 µg/mL (≈ 8.72 µM)	12.5 µg/mL (≈ 17.3 µM)	12.5 µg/mL (≈ 17.3 µM)	25 µg/mL (≈ 34.6 µM)	3.1 µg/mL (≈ 4.29 µM)	3.1 µg/mL (≈ 4.29 µM)	50 µg/mL (≈ 69.2 µM)	6.3 µg/mL (≈ 8.72 µM)	0.8 µg/mL (≈ 1.11 µM)	–	–	–
CC1(C)SC2C(NC(=O)C(NC(=O)c3cn4c5c(c(N6CCNCC6)cc(Cl)c5c3=O)CCC4)c3ccccc3)C(=O)N2C1C(=O)O (centres unmarked) [Compound K, 6-{2-[10-Chloro-8-(1-piperazinyl)-6,7-dihydro-1-oxo-1H,5H--benzo[ij]quinolizine-2-carboxamido]-2-phenylacetamido}-3,3-dimethyl-7-oxo-4-thia-1-azabicyclo[3,2,0]heptane-2-carboxylic acid, reference compound]	6.3 µg/mL (≈ 9.28 µM)	6.3 µg/mL (≈ 9.28 µM)	12.5 µg/mL (≈ 18.4 µM)	12.5 µg/mL (≈ 18.4 µM)	25 µg/mL (≈ 36.8 µM)	3.1 µg/mL (≈ 4.56 µM)	3.1 µg/mL (≈ 4.56 µM)	12.5 µg/mL (≈ 18.4 µM)	3.1 µg/mL (≈ 4.56 µM)	0.8 µg/mL (≈ 1.18 µM)	–	–	–
CC(=O)N1CCN(c2ccc3c(=O)c(C(=O)NC(C(=O)NC4C(=O)N5C4SC(C)(C)C5C(=O)O)c4ccccc4)cn4c3c2CCC4)CC1 (centres unmarked) [H]	6.3 µg/mL (≈ 9.17 µM)	–	25 µg/mL (≈ 36.4 µM)	–	25 µg/mL (≈ 36.4 µM)	3.1 µg/mL (≈ 4.51 µM)	6.3 µg/mL (≈ 9.17 µM)	50 µg/mL (≈ 72.8 µM)	12.5 µg/mL (≈ 18.2 µM)	1.6 µg/mL (≈ 2.33 µM)	–	–	MIC (Klebsiella pneumoniae; [14]): 12.5 µg/mL (≈ 18.2 µM); MIC [1, 16]: 12.5 µg/mL (≈ 18.2 µM)
CC1(C)SC2C(NC(=O)C(NC(=O)c3cn4c5c(c(N6CCNCC6)ccc5c3=O)CCC4)c3ccccc3)C(=O)N2C1C(=O)O (centres unmarked) [I]	1.6 µg/mL (≈ 2.48 µM)	0.8 µg/mL (≈ 1.24 µM)	0.4 µg/mL (≈ 0.62 µM)	25 µg/mL (≈ 38.8 µM)	25 µg/mL (≈ 38.8 µM)	6.3 µg/mL (≈ 9.77 µM)	0.2 µg/mL (≈ 0.31 µM)	12.5 µg/mL (≈ 19.4 µM)	3.1 µg/mL (≈ 4.81 µM)	0.1 µg/mL (≈ 0.155 µM)	–	–	–
CC1CCc2c(N3CCN(C(=O)C(F)(F)F)CC3)c(Cl)cc3c(=O)c(C(=O)O)cn1c23 (centres unmarked) [b]	–	0.39 µg/mL (≈ 0.852 µM)	0.2 µg/mL (≈ 0.437 µM)	3.13 µg/mL (≈ 6.84 µM)	3.13 µg/mL (≈ 6.84 µM)	–	0.39 µg/mL (≈ 0.852 µM)	–	1.56 µg/mL (≈ 3.41 µM)	3.13 µg/mL (≈ 6.84 µM)	0.39 µg/mL (≈ 0.852 µM)	6.25 µg/mL (≈ 13.7 µM)	MIC [3, 17]: 1.56 µg/mL (≈ 3.41 µM); MIC [5, 14]: 1.56 µg/mL (≈ 3.41 µM)
CC1CCc2c(N3CCN(CC(F)(F)F)CC3)c(Cl)cc3c(=O)c(C(=O)O)cn1c23 (centres unmarked) [c]	–	0.39 µg/mL (≈ 0.879 µM)	0.39 µg/mL (≈ 0.879 µM)	3.13 µg/mL (≈ 7.05 µM)	6.25 µg/mL (≈ 14.1 µM)	0.78 µg/mL (≈ 1.76 µM)	0.2 µg/mL (≈ 0.451 µM)	0.39 µg/mL (≈ 0.879 µM)	1.56 µg/mL (≈ 3.51 µM)	0.1 µg/mL (≈ 0.225 µM)	0.39 µg/mL (≈ 0.879 µM)	–	MIC [8, 19]: 1.56 µg/mL (≈ 3.51 µM)
CC1CCc2c(N3CCN(C(=O)C(F)(F)C(F)(F)F)CC3)c(Cl)cc3c(=O)c(C(=O)O)cn1c23 (centres unmarked) [d]	–	0.39 µg/mL (≈ 0.768 µM)	0.2 µg/mL (≈ 0.394 µM)	1.56 µg/mL (≈ 3.07 µM)	6.25 µg/mL (≈ 12.3 µM)	3.13 µg/mL (≈ 6.16 µM)	0.1 µg/mL (≈ 0.197 µM)	0.2 µg/mL (≈ 0.394 µM)	0.78 µg/mL (≈ 1.54 µM)	1.56 µg/mL (≈ 3.07 µM)	0.39 µg/mL (≈ 0.768 µM)	12.5 µg/mL (≈ 24.6 µM)	–
CC1CCc2c(N3CCN(C(=O)C(F)(F)C(F)(F)C(F)(F)F)CC3)c(Cl)cc3c(=O)c(C(=O)O)cn1c23 (centres unmarked) [e]	–	–	–	–	–	–	–	–	0.78 µg/mL (≈ 1.4 µM)	–	–	–	MIC [7]: 0.39 µg/mL (≈ 0.699 µM); MIC (Klebsiella pneumoniae; [14]): 0.39 µg/mL (≈ 0.699 µM); MIC (Proteus rettgeri NIH 96; NIH96, read-out: Minimum Inhibitory Concentration, inoculum 1 × 10^8 cells/ml): 0.2 µg/mL (≈ 0.359 µM); MIC [1, 16]: 1.56 µg/mL (≈ 2.8 µM); MIC ([2]; E2, read-out: Minimum Inhibitory Concentration, inoculum 1 × 10^8 cells/ml): 6.25 µg/mL (≈ 11.2 µM); MIC [3, 17]: 3.13 µg/mL (≈ 5.61 µM); MIC [4, 9]: 0.2 µg/mL (≈ 0.359 µM); MIC [5, 14]: 0.2 µg/mL (≈ 0.359 µM); MIC ([6]; FDA209, read-out: Minimum Inhibitory Concentration, inoculum 1 × 10^8 cells/ml): 3.13 µg/mL (≈ 5.61 µM); MIC [8, 19]: 6.25 µg/mL (≈ 11.2 µM)
CC1CCc2c(N3CCN(CCO)CC3)c(F)cc3c(=O)c(C(=O)O)cn1c23 (centres unmarked) [f]	–	0.78 µg/mL (≈ 2 µM)	0.2 µg/mL (≈ 0.514 µM)	6.25 µg/mL (≈ 16 µM)	12.5 µg/mL (≈ 32.1 µM)	12.5 µg/mL (≈ 32.1 µM)	0.39 µg/mL (≈ 1 µM)	0.39 µg/mL (≈ 1 µM)	0.78 µg/mL (≈ 2 µM)	0.78 µg/mL (≈ 2 µM)	0.39 µg/mL (≈ 1 µM)	3.13 µg/mL (≈ 8.04 µM)	–
COc1ccc(CN2CCN(c3c(Cl)cc4c(=O)c(C(=O)O)cn5c4c3CCC5C)CC2)cc1 (centres unmarked) [g]	–	0.78 µg/mL (≈ 1.62 µM)	0.1 µg/mL (≈ 0.207 µM)	6.25 µg/mL (≈ 13 µM)	12.5 µg/mL (≈ 25.9 µM)	12.5 µg/mL (≈ 25.9 µM)	0.78 µg/mL (≈ 1.62 µM)	0.39 µg/mL (≈ 0.809 µM)	1.56 µg/mL (≈ 3.24 µM)	0.78 µg/mL (≈ 1.62 µM)	0.78 µg/mL (≈ 1.62 µM)	3.13 µg/mL (≈ 6.49 µM)	–
C=CCN1CCN(c2c(Cl)cc3c(=O)c(C(=O)O)cn4c3c2CCC4C)CC1 (centres unmarked) [h]	–	0.78 µg/mL (≈ 1.94 µM)	0.2 µg/mL (≈ 0.498 µM)	12.5 µg/mL (≈ 31.1 µM)	12.5 µg/mL (≈ 31.1 µM)	12.5 µg/mL (≈ 31.1 µM)	0.78 µg/mL (≈ 1.94 µM)	0.78 µg/mL (≈ 1.94 µM)	1.56 µg/mL (≈ 3.88 µM)	0.78 µg/mL (≈ 1.94 µM)	0.78 µg/mL (≈ 1.94 µM)	3.13 µg/mL (≈ 7.79 µM)	–
C#CCN1CCN(c2c(Cl)cc3c(=O)c(C(=O)O)cn4c3c2CCC4C)CC1 (centres unmarked) [i]	–	0.78 µg/mL (≈ 1.95 µM)	0.2 µg/mL (≈ 0.5 µM)	12.5 µg/mL (≈ 31.3 µM)	25 µg/mL (≈ 62.5 µM)	12.5 µg/mL (≈ 31.3 µM)	0.78 µg/mL (≈ 1.95 µM)	0.78 µg/mL (≈ 1.95 µM)	1.56 µg/mL (≈ 3.9 µM)	0.39 µg/mL (≈ 0.975 µM)	–	–	MIC [7]: 1.56 µg/mL (≈ 3.9 µM); MIC [8, 19]: 1.56 µg/mL (≈ 3.9 µM)
